# Experiments:
# [1] = test system: A549 (a lung cancer cell line); test: Chemotherapy-induced cell death, PARP and Caspase-3 cleavage in A549; format: cell-based, human; details: A549 exposed to Exo/αPD1; CIS 5 μM, ABT263 15 μM
# Description: Colorimetric Cell Cytotoxicity Assay Kit (Abcam, France) was used to estimate the cell viability. Briefly, cells were seeded in 96-well plate. After the realization of manufacturer's instruction, absorbance was read at 570 and 605 nm using Victor™x3 spectrophotometer (Perkin-Elmer, France).
# Levels of cleaved caspase-3 and cleaved PARP are considered as both biomarkers of apoptosis. The measurement of these two parameters was performed using the Human Cleaved PARP1 and Human Cleaved Caspase-3 ELISA Kits (Abcam, France) according to the manufacturer's protocol.
# In view of the data described above, associating the ineffectiveness of cisplatin+αPD1 therapy with exomiR-4315-induced Bim down-expression, we then studied the effect of a “Bim/BH3 mimetic drug” such as ABT263 on the resistance to cisplatin of A549 cells exposed to Exo/αPD1. A549 lung cancer cells were then exposed to Exo/αPD1 and Exo prior to the addition of cisplatin (CIS, 5 μM) and/or ABT263 (15 μM). ABT263 abrogated the Exo/αPD1-induced resistance to CIS (FIG. 4A).
# A549-induced tumors = test: A549-inoculated xenograft mice, tumor volume; format: in vivo
# Description: The experimental procedures using animals were in accordance with Institutional Animal Care guidelines and the French National Committee of Ethics. In addition, all experiments were conducted according to the Regulations for Animal Experimentation at the “Plate-forme […] the “Institut de Recherche en Santé de l'Université de Nantes (IRS-15N)” and approved by the French National Committee of Ethics. Cultured A549 cells were harvested by trypsinization, washed and resuspended in saline buffer. Cell suspensions were injected subcutaneously (s.c.) into the flanks of 7-/8-week-old mice (Janvier, France). Tumor volume based on caliper measurements was calculated using the modified ellipsoidal formula (Tumor volume=1⁄2(length×width2)).
# 3′UTR/Bim plasmid = test: Luciferase 3'UTR reporter assay; format: cell-based, human; details: A172
# Description: Cells were seeded in 24-well plates and were transfected with the indicated firefly luciferase constructs together with an SV40-renilla control vector. Lysates were prepared at […], and luciferase activity was measured using the Dual Luciferase Reporter Assay system (Promega, France) and a luminometer (MicroLumat Plus, EG&G Berthold, France).
# Bim = Bim expression (in-cell ELISA, RT-qPCR) in A172 cells; format: cell-based, human
# Description: In cell ELISA were performed using the Bim Colorimetric Cell-Based ELISA kit (Aviva Systems Biology, France) according to the manufacturer's instructions. Briefly, 5 000 cells were seeded in 96-well plate to be exposed or not to indicated exosome or miRNA. After that, cells were treated with a fixing solution (4% of paraformaldehyde solution) for 10 min at room temperature. Primary antibody was incubated overnight at 4° C. Adequate HRP-conjugated secondary antibodies were incubated for 1 hour at room temperature. Detection was performed at 450 nm.
# After washes, cells in each well were incubated with crystal violet solution for 5 min at room temperature, according to the manufacturer's instructions. Absorbance was read at 595 nm, and used to normalize the “Bim signal”.
# RNA extract is performed using RNeasy Mini QIAcube Kit and QIAcube (Qiagen, France). RT-qPCRs are performed using QuantiTect Reverse Transcription Kit, Rotor-Gene SYBR Green PCR Kit, QuantiTect Primer Assays and Rotor-Gene Q as real-time thermocycler (Qiagen, France). Reference gene RPLPO was used, with the 2-ΔΔCt relative quantification method.
molecule,measurement,setting,value
"CC1(C)CCC(c2ccc(Cl)cc2)=C(CN2CCN(c3ccc(C(=O)NS(=O)(=O)c4ccc(N[C@H](CCN5CCOCC5)CSc5ccccc5)c(S(=O)(=O)C(F)(F)F)c4)cc3)CC2)C1 [ABT263, navitoclax]",Exo/αPD1-induced resistance to CIS,[1],abrogated
same,deleterious effect of Exo/αPD1 on the CIS-resistance of cancer cells,A549-induced tumors; A549 xenograft mice,suppressed
"5′CCGCUUUCUGAGCUGGAC (miScript mimic, further chemistry not given here) [mimic miR-4315, Syn-hsa-miR-4315 miScript miRNA Mimic]",luciferase activity associated with the 3′UTR/Bim plasmid,3′UTR/Bim plasmid,decreased
same,Bim expression (protein and mRNA levels),Bim,down-regulated
"N.N.[Cl][Pt][Cl] [CIS, cisplatin]",volume of A549-induced tumors,A549-induced tumors; xenograft mice,decreased

# Source: patent US12595517B2, “Method to treat and stratify a patient suffering from a cancer” (INSERM (INSTITUT NATIONAL DE LA SANTÉ ET DE LA RECHERCHE …, priority 2020, dated 2026)
